Values quoted from earlier work in patent US20130012613A1, “METHOD FOR SYNTHESIZING CALIXARENE AND/OR CYCLODEXTRIN COPOLYMERS, TERPOLYMERS AND TETRAPOLYMERS, AND USES THEREOF” (Drug Research Technology Transfer LLC, priority 2009, published 2013).
Values after ≈ are worked out from the molar mass of the structure shown.

Details: native cyclodextrins

solubility in water [mg/mL]	SMILES
18.8 (≈ 16.6 mM)	OC[C@H]1O[C@@H]2O[C@H]3[C@H](O)[C@@H](O)[C@@H](O[C@H]4[C@H](O)[C@@H](O)[C@@H](O[C@H]5[C@H](O)[C@@H](O)[C@@H](O[C@H]6[C@H](O)[C@@H](O)[C@@H](O[C@H]7[C@H](O)[C@@H](O)[C@@H](O[C@H]8[C@H](O)[C@@H](O)[C@@H](O[C@H]1[C@H](O)[C@H]2O)O[C@@H]8CO)O[C@@H]7CO)O[C@@H]6CO)O[C@@H]5CO)O[C@@H]4CO)O[C@@H]3CO [beta-CD, beta-cyclodextrin]
127 (≈ 131 mM)	OC[C@H]1O[C@@H]2O[C@H]3[C@H](O)[C@@H](O)[C@@H](O[C@H]4[C@H](O)[C@@H](O)[C@@H](O[C@H]5[C@H](O)[C@@H](O)[C@@H](O[C@H]6[C@H](O)[C@@H](O)[C@@H](O[C@H]7[C@H](O)[C@@H](O)[C@@H](O[C@H]1[C@H](O)[C@H]2O)O[C@@H]7CO)O[C@@H]6CO)O[C@@H]5CO)O[C@@H]4CO)O[C@@H]3CO [alpha-CD, alpha-cyclodextrin]
236 (≈ 182 mM)	OC[C@H]1O[C@@H]2O[C@H]3[C@H](O)[C@@H](O)[C@@H](O[C@H]4[C@H](O)[C@@H](O)[C@@H](O[C@H]5[C@H](O)[C@@H](O)[C@@H](O[C@H]6[C@H](O)[C@@H](O)[C@@H](O[C@H]7[C@H](O)[C@@H](O)[C@@H](O[C@H]8[C@H](O)[C@@H](O)[C@@H](O[C@H]9[C@H](O)[C@@H](O)[C@@H](O[C@H]1[C@H](O)[C@H]2O)O[C@@H]9CO)O[C@@H]8CO)O[C@@H]7CO)O[C@@H]6CO)O[C@@H]5CO)O[C@@H]4CO)O[C@@H]3CO [gamma-CD, gamma-cyclodextrin]
